Test results from patent US10865216B2, “Tricyclic Gyrase inhibitors” (MERCK SHARP & DOHME CORP., priority 2012, dated 2020).
Converted amounts (≈) assume the structure as drawn. Like-named read-outs stand apart in the source and are kept apart here. One block for each molecule: values may come before it.

Tests used:
Assay type in all cases: cell-based
S. aureus ATCC 13709 = assay: MIC, S. aureus ATCC 13709; conditions: for MIC: Staphylococcus aureus
S. pneumoniae ATCC 51916 = assay: MIC, S. pneumoniae ATCC 51916; conditions: Table 17; comparative; Spn52 not defined
P. aeruginosa ATCC 15692 = assay: MIC, P. aeruginosa ATCC 15692; conditions: Table 17; comparative, new species of R2
E. coli ATCC 25922 = assay: MIC, E. coli ATCC 25922; conditions: for MIC: Escherichia coli
[1] = S. aureus, Alamar Blue read after overnight incubation at 35° C.
[2] = E. coli, Alamar Blue read after overnight incubation at 35° C.
[3] = ATCC13709, S. aureus, Alamar Blue read after overnight incubation at 35° C., read-out: MIC Sa
[4] = ATCC25922, E. coli, Alamar Blue read after overnight incubation at 35° C., read-out: MIC Ec

Structure (SMILES): CNc1cc(F)cc2c1[nH]c1nc(Oc3cnc4ccnn4c3)nc(N3C[C@H]4C[C@@H]3C[C@H]4N)c12
- SA MIC (S. aureus ATCC 13709; Table 17, comparative, new species of R2): ≤ 0.016 µg/mL
- Spn52 MIC (S. pneumoniae ATCC 51916): ≤ 0.001 µg/mL
- PA MIC (P. aeruginosa ATCC 15692): 0.5 µg/mL

Structure (SMILES): CNNc1cc(F)cc2c1[nH]c1nc(Oc3cnc(C)nc3)nc(N3CC4C(N)C4C3)c12 (stereo not drawn) [Compound 2.1]
- MIC Sa (S. aureus ATCC 13709; [1]): ≤0.5 µg/mL
- MIC Ec (E. coli ATCC 25922; [2]): >16 µg/mL

Structure (SMILES): CNc1cc(F)cc2c1[nH]c1nc(Oc3cnc(CC(=O)N4CC(N(C)C)C4)nc3)nc(N3C[C@H](N)C4(CC4)C3)c12 [Compound 4.373]
- MIC Sa (S. aureus ATCC 13709; [1]): 2 µg/mL (≈ 3.57 µM)
- MIC Ec (E. coli ATCC 25922; [2]): 8 µg/mL (≈ 14.3 µM)

Structure (SMILES): CNc1cccc2c1[nH]c1nc(Sc3cnc4ccc[n+]([O-])c4c3)nc(N3CCC[C@@H](N)C3)c12 [Compound 1.34]
- MIC (S. aureus ATCC 13709; [3]): 1 µg/mL (≈ 2.12 µM)
- MIC (E. coli ATCC 25922; [4]): 4 µg/mL (≈ 8.46 µM)

Structure (SMILES): CNc1cc(F)cc2c1[nH]c1nc(Oc3cnc(C)nc3)nc(N3CC(N)C(C(=O)OC)C3)c12 (stereo not drawn) [drawing 1825]
- MIC (S. aureus ATCC 13709; ATCC13709, Table 16, new R4 substituents, read-out: SA MIC): ≤ 0.5 µg/mL
- MIC (E. coli ATCC 25922; ATCC25922, Table 16, new R4 substituents, EC8 not defined, read-out: EC8 MIC): 1 µg/mL (≈ 2.14 µM)

Structure (SMILES): CNc1cc(F)cc2c1[nH]c1nc3nc(c12)NCCCCCCNC(=O)CSc1ncc(cn1)O3
- MIC (S. aureus ATCC 13709; ATCC13709, Table 15, R2 is joined to R4, read-out: SA MIC): ≤ 0.5 µg/mL
- MIC (E. coli ATCC 25922; ATCC25922, Table 15, R2 is joined to R4, EC8 not defined, read-out: EC8 MIC): > 16 µg/mL

Continued, values first:

- MIC Sa (S. aureus ATCC 13709; [1]): ≤0.5 µg/mL
- MIC Ec (E. coli ATCC 25922; [2]): ≤0.5 µg/mL
Structure (SMILES): CNc1cc(F)cc2c1[nH]c1nc(Oc3cncnc3)nc(N3CC4CCNC4C3)c12 (stereo not drawn) [Compound 4.020]

- MIC Sa (S. aureus ATCC 13709; [1]): 2 µg/mL (≈ 6.45 µM)
- MIC Ec (E. coli ATCC 25922; [2]): >16 µg/mL
Structure (SMILES): CNc1cc(F)cc2c1[nH]c1nc(Oc3cncnc3)ncc12 [Compound 4.031]

- MIC Sa (S. aureus ATCC 13709; Table 18, Sa): ≤ 0.5 µg/mL
- MIC Ec (E. coli ATCC 25922; Table 18, Ec): ≤ 0.5 µg/mL
Structure (SMILES): CNc1cc(F)c(Cl)c2c1[nH]c1nc(Oc3cnc4ccnn4c3)nc(N3CC4(CC[C@@H]4N)C3)c12 [Compound 10.94]

- MIC (S. aureus ATCC 13709; [3]): ≤ 0.5 µg/mL
- MIC (E. coli ATCC 25922; [4]): 2 µg/mL (≈ 4.31 µM)
Structure (SMILES): CNc1cc(F)cc2c1[nH]c1nc(Oc3cnc(CCO)nc3)nc(N3CC4CC3C[C@@H]4N)c12 (stereo partly drawn) [Compound 4.428]

- MIC (S. aureus ATCC 13709; [3]): ≤ 0.5 µg/mL
- MIC (E. coli ATCC 25922; [4]): 2 µg/mL (≈ 4.81 µM)
Structure (SMILES): CNc1cccc2c1[nH]c1nc(Oc3cnc(C)nc3)cc(N3CCC4(CC4N)C3)c12 (stereo not drawn) [Compound 3.42]

- MIC Sa (S. aureus ATCC 13709; [1]): ≤0.5 µg/mL
- MIC Ec (E. coli ATCC 25922; [2]): ≤0.5 µg/mL
Structure (SMILES): CNc1cc(F)cc2c1[nH]c1nc(Oc3cncnc3)nc(N3CCC(C4(N)CC4)C3)c12 (stereo not drawn) [Compound 4.017]

- MIC Sa (S. aureus ATCC 13709; [1]): ≤0.5 µg/mL
- MIC Ec (E. coli ATCC 25922; [2]): ≤0.5 µg/mL
Structure (SMILES): CNc1cc(F)cc2c1[nH]c1nc(Oc3ccc(C(C)=O)nc3)nc(N3CC4CCNC4C3)c12 (stereo not drawn) [Compound 4.309]

- MIC Sa (S. aureus ATCC 13709; [1]): ≤0.5 µg/mL
- MIC Ec (E. coli ATCC 25922; [2]): 1 µg/mL (≈ 2.4 µM)
Structure (SMILES): CNc1cc(C)cc2c1[nH]c1nc(Oc3cnc(C)nc3)nc(N3CC4C(N)C4C3)c12 (stereo not drawn) [Compound 6.26]

- MIC (S. aureus ATCC 13709; [3]): ≤ 0.5 µg/mL
- MIC (E. coli ATCC 25922; [4]): 2 µg/mL (≈ 4.4 µM)
Structure (SMILES): CNc1cccc2c1[nH]c1nc(Oc3cnc(C)nc3)cc(N3CC4C(C3)C4NCCC#N)c12 (stereo not drawn) [Compound 3.11]

- MIC Sa (S. aureus ATCC 13709; [1]): ≤0.5 µg/mL
- MIC Ec (E. coli ATCC 25922; [2]): ≤0.5 µg/mL
Structure (SMILES): CNc1cc(F)cc2c1[nH]c1nc(Oc3cnc(C)nc3)nc(N3CC4CCNC4(C)C3)c12 (stereo not drawn) [Compound 4.116]
